Data taken from ChEMBL document CHEMBL1201861, “Genomics of Drug Sensitity in Cancer screening data, Wellcome Trust Sanger Institute”.

Assays:
Assay in all cases: cells
MV4-11 = type: functional, cell-based, Homo sapiens, MV-4-11; conditions: Homo sapiens, MV4-11;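 also: cell viability readout measuring growth inhibition of human MV-4-11 cells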
Description: SANGER: Inhibition of human MV-4-11 cell growth in a cell viability assay.

SNU-C2B = type: functional, cell-based; conditions: Homo sapiens;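 also: cell viability readout used to measure compound-driven suppression of SNU-C2B cell proliferation, IC50 marking half-maximal growth inhibition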
Description: SANGER: Inhibition of human SNU-C2B cell growth in a cell viability assay.

NB13 = type: functional, cell-based, Homo sapiens; conditions: Homo sapiens, NB13;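 also: cell viability readout measuring growth inhibition of human NB13 cells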
Description: SANGER: Inhibition of human NB13 cell growth in a cell viability assay.

EW-1 = type: functional, cell-based, Homo sapiens; conditions: Homo sapiens, EW-1;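 also: growth inhibition of the human EW-1 cell line, read out by a cell viability assay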
Description: SANGER: Inhibition of human EW-1 cell growth in a cell viability assay.

HDLM-2 = type: functional, cell-based, Homo sapiens; conditions: Homo sapiens, HDLM-2;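 also: cell viability assay measuring suppression of HDLM-2 proliferation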
Description: SANGER: Inhibition of human HDLM-2 cell growth in a cell viability assay.

SK-N-FI = type: functional, cell-based, Homo sapiens; conditions: Homo sapiens, SK-N-FI;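 also: cell viability assay measuring growth inhibition of human SK-N-FI cells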
Description: SANGER: Inhibition of human SK-N-FI cell growth in a cell viability assay.

TE-10 = type: functional, cell-based, Homo sapiens; conditions: Homo sapiens, TE-10;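 also: growth inhibition of TE-10 cells, measured by a cell viability assay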
Description: SANGER: Inhibition of human TE-10 cell growth in a cell viability assay.

ES3 = type: functional, cell-based, Homo sapiens; conditions: Homo sapiens, ES3;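 also: growth inhibition of ES3 cells, read out with a cell viability assay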
Description: SANGER: Inhibition of human ES3 cell growth in a cell viability assay.

SW 954 = type: functional, cell-based, Homo sapiens; conditions: Homo sapiens, SW 954;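 also: growth inhibition of SW954 human cancer cells, read out as cell viability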
Description: SANGER: Inhibition of human SW954 cell growth in a cell viability assay.

MZ2-MEL = type: functional, cell-based, Homo sapiens; conditions: Homo sapiens, MZ2-MEL;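 also: growth inhibition of MZ2-MEL cells read out with a cell viability assay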
Description: SANGER: Inhibition of human MZ2-MEL cell growth in a cell viability assay.

NCI-H720 = type: functional, cell-based, Homo sapiens; conditions: Homo sapiens, NCI-H720;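 also: growth inhibition of human NCI-H720 cells determined by a cell viability assay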
Description: SANGER: Inhibition of human NCI-H720 cell growth in a cell viability assay.

CGTH-W-1 = type: functional, cell-based, Homo sapiens; conditions: Homo sapiens, CGTH-W-1;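 also: growth inhibition of human CGTH-W-1 cells measured by cell viability assay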
Description: SANGER: Inhibition of human CGTH-W-1 cell growth in a cell viability assay.

KP-N-YS = type: functional, cell-based, Homo sapiens; conditions: Homo sapiens, KP-N-YS;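 also: cell viability assay measuring inhibition of cell line growth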
Description: SANGER: Inhibition of human KP-N-YS cell growth in a cell viability assay.

DOHH-2 = type: functional, cell-based, Homo sapiens; conditions: Homo sapiens, DOHH-2;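 also: growth inhibition of human DOHH-2 cells, read out with a cell viability assay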
Description: SANGER: Inhibition of human DOHH-2 cell growth in a cell viability assay.

HCE-4 = type: functional, cell-based; conditions: Homo sapiens;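 also: cell viability assay measuring inhibition of growth in the human HCE-4 cell line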
Description: SANGER: Inhibition of human HCE-4 cell growth in a cell viability assay.

BB30-HNC = type: functional, cell-based, Homo sapiens; conditions: Homo sapiens, BB30-HNC;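 also: growth inhibition of the cultured cell line, read out by a cell viability assay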
Description: SANGER: Inhibition of human BB30-HNC cell growth in a cell viability assay.

NCI-H82 = type: functional, cell-based, Homo sapiens; conditions: Homo sapiens, NCI-H82;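 also: growth inhibition of NCI-H82 cells, measured with a cell viability readout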
Description: SANGER: Inhibition of human NCI-H82 cell growth in a cell viability assay.

BB65-RCC = type: functional, cell-based, Homo sapiens; conditions: Homo sapiens, BB65-RCC;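 also: growth inhibition of the cell line, measured with a cell viability assay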
Description: SANGER: Inhibition of human BB65-RCC cell growth in a cell viability assay.

SJSA-1 = type: functional, cell-based, Homo sapiens; conditions: Homo sapiens, SJSA-1;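 also: growth inhibition of human SJSA-1 cells, read out through a cell viability measurement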
Description: SANGER: Inhibition of human SJSA-1 cell growth in a cell viability assay.

DU-4475 = type: functional, cell-based, Homo sapiens; conditions: Homo sapiens, DU-4475
Description: SANGER: Inhibition of human DU-4475 cell growth in a cell viability assay.

C2BBe1 = type: functional, cell-based, Homo sapiens; conditions: Homo sapiens, C2BBe1;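 also: growth inhibition of C2BBe1 cells, read out through a viability assay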
Description: SANGER: Inhibition of human C2BBe1 cell growth in a cell viability assay.

A498 = type: functional, cell-based, Homo sapiens; conditions: Homo sapiens, A498;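 also: growth inhibition of human A498 cells, read out with a cell viability assay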
Description: SANGER: Inhibition of human A498 cell growth in a cell viability assay.

CW-2 = type: functional, cell-based, Homo sapiens; conditions: Homo sapiens, CW-2;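 also: growth inhibition of CW-2 cells, read out by a cell viability assay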
Description: SANGER: Inhibition of human CW-2 cell growth in a cell viability assay.

L-428 = type: functional, cell-based, Homo sapiens; conditions: Homo sapiens, L-428
Description: SANGER: Inhibition of human L-428 cell growth in a cell viability assay.

NB69 = type: functional, cell-based, Homo sapiens; conditions: Homo sapiens, NB69;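 also: growth inhibition of NB69 cells, determined by a cell viability assay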
Description: SANGER: Inhibition of human NB69 cell growth in a cell viability assay.

SK-NEP-1 = type: functional, cell-based, Homo sapiens; conditions: Homo sapiens, SK-NEP-1;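 also: growth inhibition of human SK-NEP-1 cells, read out by a cell viability assay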
Description: SANGER: Inhibition of human SK-NEP-1 cell growth in a cell viability assay.

MSTO-211H = type: functional, cell-based, Homo sapiens; conditions: Homo sapiens, MSTO-211H
Description: SANGER: Inhibition of human MSTO-211H cell growth in a cell viability assay.

MC116 = type: functional, cell-based, Homo sapiens; conditions: Homo sapiens, MC116;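 also: growth inhibition of MC116 cells, read out with a cell viability assay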
Description: SANGER: Inhibition of human MC116 cell growth in a cell viability assay.

K5 = type: functional, cell-based, Homo sapiens; conditions: Homo sapiens, K5
Description: SANGER: Inhibition of human K5 cell growth in a cell viability assay.

TGBC24TKB = type: functional, cell-based; conditions: Homo sapiens;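 also: growth inhibition of human TGBC24TKB cells, read out with a cell viability assay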
Description: SANGER: Inhibition of human TGBC24TKB cell growth in a cell viability assay.

NCI-H1155 = type: functional, cell-based, Homo sapiens; conditions: Homo sapiens, NCI-H1155;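 also: cell growth inhibition measured by a viability assay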
Description: SANGER: Inhibition of human NCI-H1155 cell growth in a cell viability assay.

JAR = type: functional, cell-based, Homo sapiens; conditions: Homo sapiens, JAR;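 also: growth inhibition of human JAR cells determined with a cell viability assay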
Description: SANGER: Inhibition of human JAR cell growth in a cell viability assay.

HCC2218 = type: functional, cell-based, Homo sapiens; conditions: Homo sapiens, HCC2218;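 also: cell viability assay read-out, with IC50 given as the concentration that inhibits growth of the cell line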
Description: SANGER: Inhibition of human HCC2218 cell growth in a cell viability assay.

SW982 = type: functional, cell-based; conditions: Homo sapiens;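 also: growth inhibition of SW982 cells, read out with a cell viability assay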
Description: SANGER: Inhibition of human SW982 cell growth in a cell viability assay.

IST-MES1 = type: functional, cell-based, Homo sapiens; conditions: Homo sapiens, IST-MES1;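 also: growth inhibition of IST-MES1 cells, measured with a cell viability assay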
Description: SANGER: Inhibition of human IST-MES1 cell growth in a cell viability assay.

DMS-114 = type: functional, cell-based, Homo sapiens; conditions: Homo sapiens, DMS-114
NCI-N87 = type: functional, cell-based; conditions: Homo sapiens;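 also: growth inhibition of human NCI-N87 cells, read out with a cell viability assay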
Description: SANGER: Inhibition of human NCI-N87 cell growth in a cell viability assay.

NCI-H209 = type: functional, cell-based, Homo sapiens; conditions: Homo sapiens, NCI-H209;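 also: growth inhibition of human NCI-H209 cells, measured by a cell viability assay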
Description: SANGER: Inhibition of human NCI-H209 cell growth in a cell viability assay.

NB6 = type: functional, cell-based, Homo sapiens; conditions: Homo sapiens, NB6
Description: SANGER: Inhibition of human NB6 cell growth in a cell viability assay.

EW-3 = type: functional, cell-based, Homo sapiens; conditions: Homo sapiens, EW-3;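 also: cell viability assay read-out, IC50 reflects inhibition of growth of the EW-3 cells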
Description: SANGER: Inhibition of human EW-3 cell growth in a cell viability assay.

A388 = type: functional, cell-based; conditions: Homo sapiens;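 also: growth inhibition of human A388 cells, read out with a cell viability assay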
Description: SANGER: Inhibition of human A388 cell growth in a cell viability assay.

SNU-5 = type: functional, cell-based, Homo sapiens; conditions: Homo sapiens, SNU-5;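 also: cell viability readout used to measure growth inhibition in human NCI-SNU-5 cells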
Description: SANGER: Inhibition of human NCI-SNU-5 cell growth in a cell viability assay.

NCI-H1355 = type: functional, cell-based, Homo sapiens; conditions: Homo sapiens, NCI-H1355;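 also: growth inhibition of human NCI-H1355 cells, read out by a cell viability assay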
Description: SANGER: Inhibition of human NCI-H1355 cell growth in a cell viability assay.

KNS-42 = type: functional, cell-based; conditions: Homo sapiens;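 also: growth inhibition of KNS-42 cells, read out with a cell viability assay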
Description: SANGER: Inhibition of human KNS-42 cell growth in a cell viability assay.

EM-2 = type: functional, cell-based, Homo sapiens; conditions: Homo sapiens, EM-2;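 also: growth inhibition of EM-2 cells, read out with a cell viability assay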
Description: SANGER: Inhibition of human EM-2 cell growth in a cell viability assay.

BE-13 = type: functional, cell-based, Homo sapiens; conditions: Homo sapiens, BE-13;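 also: growth inhibition of human BE-13 cells, measured with a cell viability assay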
Description: SANGER: Inhibition of human BE-13 cell growth in a cell viability assay.

UACC-257 = type: functional, cell-based, Homo sapiens; conditions: Homo sapiens, UACC-257
Description: SANGER: Inhibition of human UACC-257 cell growth in a cell viability assay.

NEC8 = type: functional, cell-based, Homo sapiens; conditions: Homo sapiens, NEC8;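 also: growth inhibition of human NEC8 cells, read out by a cell viability assay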
Description: SANGER: Inhibition of human NEC8 cell growth in a cell viability assay.

GCIY = type: functional, cell-based, Homo sapiens; conditions: Homo sapiens, GCIY;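 also: growth inhibition of the human GCIY cell line, read out by a cell viability assay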
Description: SANGER: Inhibition of human GCIY cell growth in a cell viability assay.

U-87 MG = type: functional, cell-based, Homo sapiens, U-87MG ATCC; conditions: Homo sapiens, U-87 MG;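 also: growth inhibition of the cells measured with a viability assay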
Description: SANGER: Inhibition of human U-87-MG cell growth in a cell viability assay.

SMILES: NC(=O)c1ccc(N(C(N)=O)c2c(F)cccc2F)nc1-c1ccc(F)cc1F [VX-702]
- IC50 (MV4-11): > 2000 nM
- IC50 (SNU-C2B): > 2000 nM
- IC50 (NB13): > 2000 nM
- IC50 (EW-1): > 2000 nM
- IC50 (HDLM-2): > 2000 nM
- IC50 (SK-N-FI): > 2000 nM
- IC50 (TE-10): > 2000 nM
- IC50 (ES3): > 2000 nM
- IC50 (SW 954): > 2000 nM
- IC50 (MZ2-MEL): > 2000 nM
- IC50 (NCI-H720): 16.8 nM
- IC50 (CGTH-W-1): > 2000 nM
- IC50 (KP-N-YS): > 2000 nM
- IC50 (DOHH-2): > 2000 nM
- IC50 (HCE-4): > 2000 nM
- IC50 (BB30-HNC): > 2000 nM
- IC50 (NCI-H82): > 2000 nM
- IC50 (BB65-RCC): > 2000 nM
- IC50 (SJSA-1): > 2000 nM
- IC50 (DU-4475): > 2000 nM
- IC50 (C2BBe1): > 2000 nM
- IC50 (A498): > 2000 nM
- IC50 (CW-2): > 2000 nM
- IC50 (L-428): > 2000 nM
- IC50 (NB69): > 2000 nM
- IC50 (SK-NEP-1): > 2000 nM
- IC50 (MSTO-211H): > 2000 nM
- IC50 (MC116): > 2000 nM
- IC50 (K5): 229 nM
- IC50 (TGBC24TKB): > 2000 nM
- IC50 (NCI-H1155): > 2000 nM
- IC50 (JAR): > 2000 nM
- IC50 (HCC2218): 497 nM
- IC50 (SW982): > 2000 nM
- IC50 (IST-MES1): > 2000 nM
- IC50 (DMS-114): > 2000 nM
- IC50 (NCI-N87): > 2000 nM
- IC50 (NCI-H209): 176 nM
- IC50 (NB6): > 2000 nM
- IC50 (EW-3): 666 nM
- IC50 (A388): > 2000 nM
- IC50 (SNU-5): > 2000 nM
- IC50 (NCI-H1355): > 2000 nM
- IC50 (KNS-42): > 2000 nM
- IC50 (EM-2): > 2000 nM
- IC50 (BE-13): > 2000 nM
- IC50 (UACC-257): 1200 nM
- IC50 (NEC8): > 2000 nM
- IC50 (GCIY): > 2000 nM
- IC50 (U-87 MG): > 2000 nM

SMILES: NC(=O)Nc1cc(-c2cccc(F)c2)sc1C(=O)N[C@H]1CCCNC1 [AZD-7762]
- IC50 (MV4-11): < 7.81 nM
- IC50 (SNU-C2B): 281 nM
- IC50 (NB13): 537 nM
- IC50 (EW-1): 189 nM
- IC50 (HDLM-2): 813 nM
- IC50 (SK-N-FI): 1490 nM
- IC50 (TE-10): 910 nM
- IC50 (ES3): 102 nM
- IC50 (SW 954): 401 nM
- IC50 (MZ2-MEL): > 2000 nM
- IC50 (NCI-H720): 402 nM
- IC50 (CGTH-W-1): 14.2 nM
- IC50 (KP-N-YS): 584 nM
- IC50 (DOHH-2): 131 nM
- IC50 (HCE-4): 970 nM
- IC50 (BB30-HNC): 315 nM
- IC50 (NCI-H82): > 2000 nM
- IC50 (BB65-RCC): 271 nM
- IC50 (SJSA-1): 417 nM
- IC50 (DU-4475): 349 nM
- IC50 (C2BBe1): 689 nM
- IC50 (A498): 1730 nM
- IC50 (CW-2): > 2000 nM
- IC50 (L-428): > 2000 nM
- IC50 (NB69): 705 nM
- IC50 (SK-NEP-1): 464 nM
- IC50 (MSTO-211H): 299 nM
- IC50 (MC116): 257 nM
- IC50 (K5): 941 nM
- IC50 (TGBC24TKB): 165 nM
- IC50 (NCI-H1155): 739 nM
- IC50 (JAR): 232 nM
- IC50 (HCC2218): > 2000 nM
- IC50 (SW982): 784 nM
- IC50 (IST-MES1): > 2000 nM
- IC50 (DMS-114): > 2000 nM
- IC50 (NCI-N87): 846 nM
- IC50 (NCI-H209): 324 nM
- IC50 (NB6): 985 nM
- IC50 (EW-3): 736 nM
- IC50 (A388): > 2000 nM
- IC50 (SNU-5): > 2000 nM
- IC50 (NCI-H1355): 679 nM
- IC50 (KNS-42): > 2000 nM
- IC50 (EM-2): 99 nM
- IC50 (BE-13): 201 nM
- IC50 (UACC-257): > 2000 nM
- IC50 (NEC8): 42 nM
- IC50 (GCIY): 1390 nM
- IC50 (U-87 MG): 1210 nM
